Key:
[1] = boiling for 30 minutes; rearranges to 1,2,3-trithiane-5-carboxylic acid and 1,2-dithiacylopentene; cited from earlier work
[2] = tested on: shaking from Parkinson disease; experiment: hand writing skill test for relief of the shaking from Parkinson disease in one patient; format: in vivo, human
Method: A patient diagnosed with Parkinson's disease and in need of treatment by the methods disclosed herein was administered compositions comprising the compounds disclosed herein. The patient had been diagnosis with Parkinson's disease by two medical doctors, the family doctor and a neurologist. They had taken L-Dopa for over a year. The patient informed their doctors that they were no longer taking L-Dopa. They took nothing for their Parkinson's Disease for almost a year before beginning to take asparagusic acid.
The test for relief of the shaking from Parkinson disease was the patient's hand writing skill. Prior to treatment with asparagusic acid the patient could not write their name. […] Normally the ability to write was diminished within 12 hours, but their varied.
The asparagus top third was cut from the stalk and weighed. 50 to 100 grams was used per treatment. The tops were steamed for a short period of time. This was typically done by placing the asparagus tops in a pie plate and covered. No water was added. After a short heating period, for example heating in a microwave for 44 seconds on high, the asparagus is “self” steamed from water in the plant and may substantially help in the formation of asparagusic acid from asparaptine. […] Excess heating will decompose asparagusic acid and will likely form a dihydro byproduct by splitting the disulfide linkage.
A preparation as described above was taken at least two hours after eating. The asparagus was consumed immediately after heating with salt and taken with simple non-caffeine liquids such as water and white wine. No further food was consumed for at least an hour. […] One exception was found. […] It is noted that raw eggs contain many sulfur compounds.

Row | SMILES | stability during cooking [1] | time until ability to write was diminished ([2]; one Parkinson's patient, after treatment, varied) [h] | relief of the shaking from Parkinson disease (patient's hand writing skill) ([2]; one Parkinson's patient, 50 to 100 grams asparagus tops, steamed a short time (microwave 44 seconds), taken at least two hours after eating, no food for at least an hour) | effect on shaking, lipoic acid ([2]; 250 mg tablet, same manner in regards to food consumption as Example 1)
1 | O=C(O)C1CSSC1 [asparagusic acid, 1,2-dithiolane-4-carboxylic acid] | not vary stable | ≤ 12 | could easily write their name in a flowing easy manner | 
2 | O=C(O)CCCC[C@@H]1CCSS1 (racemic) [lipoic acid, reference compound] |  |  |  | no effect
